According to patent US20240140933A1, “OXOINDOLINE COMPOUND FOR THE TREATMENT OF INFLAMMATORY DISEASES OR CANCER” (Hoffmann-La Roche Inc., priority 2021, published 2024):

Target: PDHK1 (Homo sapiens (Human), UniProt Q15118)
Test: PDHK1 enzymatic assay (AlphaScreen, phosphorylation of PDHE1 S293)
Format: biochemical
Conditions: 1 nM PDHK1, 25 nM PDHE1, 20 μM ATP, 30° C. for 45 minutes
From the text: Pyruvate dehydrogenase complex (PDHc) is an enzyme that catalyzes the reaction of pyruvate and a lipoamide to give the acetylated dihydrolipoamide and carbon dioxide. PDHc has three subunits E1, E2 and E3. E1 has 3 serine phosphorylation sites S293, S232, S300. If E1 was phosphorylated, PDH will be inactivated. PDHK can phosphorylate PDH protein (also named PDHE1) in PDH complex (PDC) to inactivate it.

Sequence of PDHK1 (Q15118 29-436): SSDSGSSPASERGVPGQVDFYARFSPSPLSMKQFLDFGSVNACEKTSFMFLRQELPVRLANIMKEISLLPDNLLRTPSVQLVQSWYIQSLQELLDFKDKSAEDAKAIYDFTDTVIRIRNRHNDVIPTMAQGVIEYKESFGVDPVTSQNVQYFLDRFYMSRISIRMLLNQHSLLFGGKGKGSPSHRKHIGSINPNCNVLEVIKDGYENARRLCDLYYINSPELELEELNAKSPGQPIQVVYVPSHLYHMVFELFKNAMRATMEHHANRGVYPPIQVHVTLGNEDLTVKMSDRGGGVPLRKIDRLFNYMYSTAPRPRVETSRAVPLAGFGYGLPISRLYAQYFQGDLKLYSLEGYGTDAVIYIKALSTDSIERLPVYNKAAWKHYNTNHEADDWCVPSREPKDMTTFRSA

CCNc1cc(F)cc2c1NC(=O)C2(C)N1CCC[C@@H](NC(=O)c2cccc(S(=O)(=O)F)c2)C1 (stereo partly drawn) [Example 42, 3-[[(3R)-1-[7-(ethylamino)-5-fluoro-3-methyl-2-oxo-indolin-3-yl]-3-piperidyl]carbamoyl]benzenesulfonyl fluoride]
Enzymatic IC50 against PDHK1: 0.020 µg/mL
